{"source": "patent US20260103444A1", "about": "“8-HYDROXYQUINOLINE COMPOUND AND USE THEREOF” (OSAKA UNIVERSITY, priority 2022, published 2026)", "key": {"cMLCK [1]": {"target": "T1, cMLCK (Homo sapiens, UniProt Q32MK0)", "T1 construct": "BTN (vendor prefix; by own knowledge, biotinylated); purchased Carna Bioscience #02-460-20N", "assay": "cMLCK activity, ADP-Glo kinase assay", "assay_type": "biochemical", "conditions": "for cMLCK activity compared with the compound of Synthesis Example 1: ADP-Glo kinase assay, relative to Synthesis Example 1 (LEU-0992); for cMLCK activation action, dose dependence: ADP-Glo assay; for specificity for cMLCK: versus smMLCK and skMLCK", "experimental": "The cMLCK activation action by 8-hydroxyquinoline compounds was measured by using the ADP-Glo kinase assay (Promega) according to the manufacturer's protocol.\n(§1) Purchased purified human cMLCK (BTN-cMLCK, #02-460-20N, Carna Bioscience) as well as in-house purified calmodulin (NM 006888) and cardiac myosin regulatory light chain (MLC2v) (NM 000432) were used to perform phosphorylation to thereby establish an in vitro kinase assay system for measuring cMLCK activity according to the ADP-Glo assay (Promega) or Kumagai method. This system was then applied to high-throughput screening (HTS). The HTS was performed by using multiple domestic compound libraries (compound concentration: 10 μM), and structural development of candidate compounds was performed, thereby developing cMLCK activators based on the 8-hydroxyquinoline (8HQ) skeleton."}, "[2]": {"target": "T2, human skeletal muscle-type MLCK (skMLCK) (Homo sapiens, UniProt Q9H1R3)", "T2 construct": "made in house", "assay": "specificity: in-vitro kinase reaction with skMLCK and its substrate MYLPF, ADP-Glo assay", "assay_type": "biochemical", "conditions": "skMLCK with substrate MYLPF", "experimental": "(§2) Next, the specificity of the two 8HQ compounds (LEU-1142 and LEU-1170) for human smooth muscle-type MLCK (smMLCK, NM 053025) and human skeletal muscle-type MLCK (skMLCK, NM 033118), which are cMLCK family proteins, was examined (FIGS. 7-1 and 7-2). In-vitro kinase reactions were performed using smMLCK and its substrate MYL9 (NM 006097), and skMLCK and its substrate MYLPF (NM 013292), which had been all purified in-house, and their activity was measured according to the ADP-Glo assay."}, "cMLCK [3]": {"target": "T1, cMLCK", "assay": "phosphorylation of MLC2v by phos-tag PAGE", "assay_type": "biochemical"}, "cMLCK [4]": {"target": "T1, cMLCK", "assay": "enzymatic study (Michaelis-Menten kinetics) of cMLCK", "assay_type": "biochemical", "experimental": "as §1"}, "[5]": {"target": "T3, human smooth muscle-type MLCK (smMLCK) (Homo sapiens, UniProt Q15746)", "T3 construct": "made in house", "assay": "specificity: in-vitro kinase reaction with smMLCK and its substrate MYL9, ADP-Glo assay", "assay_type": "biochemical", "conditions": "smMLCK with substrate MYL9, ADP-Glo assay", "experimental": "as §2"}, "[6]": {"conditions": "phase 3 clinical trial; cited from earlier work"}, "[7]": {"tested_on": "wild-type human iPS cardiomyocytes", "assay": "intracellular calcium dynamics (Cal-520, FDSS kinetic plate imager)", "assay_type": "cell-based", "conditions": "wild-type iPSC-CMs, various concentrations, with pacing", "experimental": "CTAs: average changes of calcium transient amplitude at systole, PWD50: pulse width duration measured at 50% CTAs\nWild-type iPSC-CMs were seeded on a 96-well plate at a density of 5×10^4 cells/well and cultured in DMEM with 10% FBS for 24 hours. Subsequently, Cal-520 (ab171868, Abcam) was then added to a final concentration of 5 μM, and the cells were cultured for an additional hour. After removing the medium and washing with HHBS buffer, the buffer was replaced with FluoroBrite DMEM containing various concentrations of LEUO-1154, isoproterenol (positive control group: catecholamine stimulation), or DMSO (negative control group). Intracellular calcium dynamics was then measured with pacing by using an FDSS/ρCell kinetic plate imager (Hamamatsu Photonics K. K.)."}}}
{"compound": "Oc1cccnc1NC(c1ccc(F)cc1)c1ccc2cccnc2c1O", "note": "(stereo not drawn) [LEU-0942, 7-{(4-fluorophenyl) [(3-hydroxypyridin-2-yl)amino]methyl}quinolin-8-ol]", "values": [{"measurement": "cMLCK activity compared with the compound of Synthesis Example 1", "setting": "cMLCK [1]", "result": "weaker"}]}
{"compound": "Oc1c(C(c2ccc(C(F)(F)F)cc2)N2CCCCC2)ccc2cccnc12", "note": "(stereo not drawn) [LEU-0943, 7-(piperidin-1-yl [4-(trifluoromethyl)phenyl]methyl}quinolin-8-ol]", "values": [{"measurement": "cMLCK activity compared with the compound of Synthesis Example 1", "setting": "cMLCK [1]", "result": "weaker"}]}
{"compound": "O=[N+]([O-])c1cccc(C(Nc2nccs2)c2ccc3cccnc3c2O)c1", "note": "(stereo not drawn) [LEU-0944, 7-[(3-nitrophenyl) (thiazol-2-ylamino)methyl]quinolin-8-ol]", "values": [{"measurement": "cMLCK activity compared with the compound of Synthesis Example 1", "setting": "cMLCK [1]", "result": "equivalent"}]}
{"compound": "Oc1ccccc1C(Nc1nccs1)c1ccc2cccnc2c1O", "note": "(stereo not drawn) [LEU-0945, 7-[(2-hydroxyphenyl) (thiazol-2-ylamino)methyl]quinolin-8-ol]", "values": [{"measurement": "cMLCK activity compared with the compound of Synthesis Example 1", "setting": "cMLCK [1]", "result": "weaker"}]}
{"compound": "COc1ccc(C(NC(C)=O)c2cc([N+](=O)[O-])c3cccnc3c2O)cc1", "note": "(stereo not drawn) [LEU-0990, N-[(8-hydroxy-5-nitroquinolin-7-yl) (4-methoxyphenyl)methyl]acetamide]", "values": [{"measurement": "cMLCK activity compared with the compound of Synthesis Example 1", "setting": "cMLCK [1]", "result": "weaker"}]}
{"compound": "CCC(=O)NC(c1ccc(OC)cc1)c1cc([N+](=O)[O-])c2cccnc2c1O", "note": "(stereo not drawn) [LEU-0993]", "values": [{"measurement": "cMLCK activity compared with the compound of Synthesis Example 1", "setting": "cMLCK [1]", "result": "equivalent"}]}
{"compound": "COc1ccc(C(Nc2ccccn2)c2cc(Cl)c3cccnc3c2O)cc1[N+](=O)[O-]", "note": "(stereo not drawn) [LEU-0997, 5-chloro-7-[(4-methoxy-3-nitrophenyl) (pyridin-2-ylamino)methyl]quinolin-8-ol]", "values": [{"measurement": "cMLCK activity compared with the compound of Synthesis Example 1", "setting": "cMLCK [1]", "result": "equivalent"}]}
{"compound": "Oc1c(C(Nc2ccccn2)c2cccnc2)cc(Cl)c2cccnc12", "note": "(stereo not drawn) [LEU-0998, 5-chloro-7-[(pyridin-2-ylamino) (pyridin-3-yl)methyl]quinolin-8-ol]", "values": [{"measurement": "cMLCK activity compared with the compound of Synthesis Example 1", "setting": "cMLCK [1]", "result": "weaker"}]}
{"compound": "Oc1c(CN2CCC(Cc3ccccc3)CC2)cc(Cl)c2cccnc12", "note": "[LEU-0999, 7-[(4-benzylpiperidin-1-yl)methyl]-5-chloroquinolin-8-ol]", "values": [{"measurement": "cMLCK activity compared with the compound of Synthesis Example 1", "setting": "cMLCK [1]", "result": "weaker"}]}
{"compound": "Oc1c(C(Nc2nccs2)c2ccccc2)ccc2cccnc12", "note": "(stereo not drawn) [LEU-1008, 7-[phenyl(thiazol-2-ylamino)methyl]quinolin-8-ol]", "values": [{"measurement": "cMLCK activity compared with the compound of Synthesis Example 1", "setting": "cMLCK [1]", "result": "equivalent"}]}
{"compound": "CCCCC(=O)NC(c1ccc(OC)cc1)c1cc(Cl)c2cccnc2c1O", "note": "(stereo not drawn) [LEU-1018, N-[(5-chloro-8-hydroxyquinolin-7-yl) (4-methoxyphenyl)methyl]pentanamide]", "values": [{"measurement": "cMLCK activity compared with the compound of Synthesis Example 1", "setting": "cMLCK [1]", "result": "weaker"}]}
{"compound": "CCCCC(=O)NC(c1ccc(OC)cc1)c1ccc2cccnc2c1O", "note": "(stereo not drawn) [LEU-1128, N-[(8-hydroxyquinolin-7-yl) (4-methoxyphenyl)methyl]pentanamide]", "values": [{"measurement": "cMLCK activity compared with the compound of Synthesis Example 1", "setting": "cMLCK [1]", "result": "weaker"}]}
{"compound": "CCCCC(=O)NC(c1ccc(-n2ccnc2)cc1)c1cc([N+](=O)[O-])c2cccnc2c1O", "note": "(stereo not drawn) [LEU-1142, N-{[4-(1H-imidazol-1-yl)phenyl] (8-hydroxy-5-nitroquinolin-7-yl)methyl}pentanamide]", "values": [{"measurement": "cMLCK activation action, dose dependence", "setting": "cMLCK [1]", "result": "dose-dependent"}, {"measurement": "specificity for cMLCK", "setting": "cMLCK [1]", "result": "high specificity for cMLCK"}, {"measurement": "specificity for skMLCK", "setting": "[2]", "result": "Neither compound showed specificity"}, {"measurement": "phosphorylation of MLC2v", "setting": "cMLCK [3]", "result": "increase the phosphorylation of MLC2v"}, {"measurement": "effect on Km", "setting": "cMLCK [4]", "result": "did not affect Km"}, {"measurement": "specificity for smMLCK", "setting": "[5]", "result": "Neither compound showed specificity"}]}
{"compound": "CCCCC(=O)NC(c1ccc(N2CCOCC2)nc1)c1cc([N+](=O)[O-])c2cccnc2c1O", "note": "(stereo not drawn) [LEU-1170, N-[(8-hydroxy-5-nitroquinolin-7-yl) (6-morpholinopyridin-3-yl)methyl]pentanamide]", "values": [{"measurement": "cMLCK activation action, dose dependence", "setting": "cMLCK [1]", "result": "dose-dependent"}, {"measurement": "specificity for cMLCK", "setting": "cMLCK [1]", "result": "high specificity for cMLCK"}, {"measurement": "specificity for skMLCK", "setting": "[2]", "result": "Neither compound showed specificity"}, {"measurement": "phosphorylation of MLC2v", "setting": "cMLCK [3]", "result": "increase the phosphorylation of MLC2v"}, {"measurement": "effect on Km", "setting": "cMLCK [4]", "result": "did not affect Km"}, {"measurement": "specificity for smMLCK", "setting": "[5]", "result": "Neither compound showed specificity"}]}
{"compound": "COc1ccc(C(NC(=O)C(C)C)c2cc([N+](=O)[O-])c3cccnc3c2O)cc1", "note": "(stereo not drawn) [LEU-1220, N-[(8-hydroxy-5-nitroquinolin-7-yl) (4-methoxyphenyl)methyl]isobutyramide]", "values": [{"measurement": "cMLCK activity compared with the compound of Synthesis Example 1", "setting": "cMLCK [1]", "result": "equivalent"}]}
{"compound": "COC(=O)N1CCN(Cc2cccc(NC(=O)Nc3ccc(C)nc3)c2F)CC1", "note": "[Omecamtiv mecarbil (OM), Omecamtiv mecarbil]", "values": [{"measurement": "time to onset of heart failure", "setting": "[6]", "result": "prolonging the time to onset of heart failure without worsening prognosis"}]}
{"compound": "CC(C)NCC(O)c1ccc(O)c(O)c1", "note": "(stereo not drawn) [isoproterenol, reference compound]", "values": [{"measurement": "calcium dynamics", "setting": "[7]", "result": "enhanced calcium dynamics"}]}
